In patent publication US20240270762A1, “PENICILLIN-BINDING PROTEIN INHIBITORS” (priority 2021, published 2024):
pEC50, pIC50: −log10 of the molar value. ≈ marks a conversion by molar mass, not a printed value. Read-outs that look alike come from different tables or passages of the source.

Key:
[1] = target: T1, A. baumannii PBP1a (Acinetobacter baumannii, UniProt A0ABX6CK30); experiment: Bocillin-FL competition binding via gel filtration, A. baumannii PBP1a
T1 sequence (A0ABX6CK30 1-851): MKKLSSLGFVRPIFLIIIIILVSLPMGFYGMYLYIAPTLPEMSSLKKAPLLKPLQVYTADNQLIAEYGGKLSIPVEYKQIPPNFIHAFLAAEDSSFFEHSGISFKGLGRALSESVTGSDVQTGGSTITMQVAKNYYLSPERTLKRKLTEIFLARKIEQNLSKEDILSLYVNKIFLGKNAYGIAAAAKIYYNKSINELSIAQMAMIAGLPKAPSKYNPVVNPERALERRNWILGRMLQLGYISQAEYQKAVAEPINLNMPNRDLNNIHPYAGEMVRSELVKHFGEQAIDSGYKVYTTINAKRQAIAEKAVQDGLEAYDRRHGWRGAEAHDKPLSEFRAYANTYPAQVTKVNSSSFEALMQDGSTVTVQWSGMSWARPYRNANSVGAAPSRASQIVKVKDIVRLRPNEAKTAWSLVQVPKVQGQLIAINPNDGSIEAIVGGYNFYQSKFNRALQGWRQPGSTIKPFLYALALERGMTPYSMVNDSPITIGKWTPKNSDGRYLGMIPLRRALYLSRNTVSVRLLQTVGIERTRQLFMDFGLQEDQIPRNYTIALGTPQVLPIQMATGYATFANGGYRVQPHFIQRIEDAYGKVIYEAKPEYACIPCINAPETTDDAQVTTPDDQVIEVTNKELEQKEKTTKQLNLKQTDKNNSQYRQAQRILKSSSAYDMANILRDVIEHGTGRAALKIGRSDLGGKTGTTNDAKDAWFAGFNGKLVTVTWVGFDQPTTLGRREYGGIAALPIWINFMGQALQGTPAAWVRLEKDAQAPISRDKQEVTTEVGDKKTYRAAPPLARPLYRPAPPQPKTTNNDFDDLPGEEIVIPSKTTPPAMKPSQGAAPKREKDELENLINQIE
Experimental: (§1) Affinity to A. baumannii PBP1a and PBP2 was assessed a competitive equilibrium binding assay using Bocillin-FL as the reporter molecule. Enzyme was pre-incubated with increasing concentrations of inhibitors, prior to addition of Bocillin and further incubation for 15 minutes. PBP bound with Bocillin-FL was separated by gel filtration using 96-well Zeba Spin size exclusion plates, and the fluorescence measured. The inhibitor affinity (reported as the EC50) was determined by plotting the fraction of PBP bound with Bocillin-FL at each inhibitor concentration against the inhibitor concentration, and fitting the data to the following equation:
(§2) [formula] • where y is the fraction bound at a given inhibitor concentration, ymin is the fraction bound when the enzyme is completely inactivated, ymax is the maximum (uninhibited) fraction bound, n is the Hill coefficient, and x is the inhibitor concentration.

[2] = target: T2, PBP3 from Pseudomonas aeruginosa (PAO1) (Pseudomonas aeruginosa, UniProt G3XD46); experiment: Bocillin-FL fluorescence polarization competition binding, P. aeruginosa PBP3; settings: Binding affinity to P. aeruginosa PBP3; fluorescence polarization competition binding assay using Bocillin-FL; read-out: P. aeruginosa PBP3 Potency
T2 construct: made in house
How it was run: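 Purified PBP was preincubated with inhibitor (E. coli PBP3 1.5 μM, 30 min; P. aeruginosa PBP3 0.75 μM, A. baumannii PBP3 0.2 μM and PBP1a 1 μM, 15 min), then Bocillin-FL (0.1 μM; 0.05 μM for PBP1a) added and FP read up to 60 min. EC50 = 50% loss of bound probe.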

[3] = test system: A. baumannii ATCC 17978; experiment: microbe, parasite or virus in culture; type: cell-based; settings: Acinetobacter baumannii, ATCC17978, read-out: Minimum inhibitory concentration (MIC), A. baumannii ATCC 17978
[4] = target: A. baumannii PBP2 (Acinetobacter baumannii, UniProt D0C8Z9); experiment: Bocillin-FL competition binding via gel filtration, A. baumannii PBP2
Experimental: as §1, §2

[5] = test system: A. baumannii CDC-0033; experiment: microbe, parasite or virus in culture; type: cell-based; settings: Acinetobacter baumannii, CDC0033, read-out: Minimum inhibitory concentration (MIC), A. baumannii CDC-0033
[6] = test system: A. baumannii CDC-0045; experiment: microbe, parasite or virus in culture; type: cell-based; settings: Acinetobacter baumannii, CDC0045, read-out: Minimum inhibitory concentration (MIC), A. baumannii CDC-0045
[7] = test system: B. thailandensis ATCC 700388; experiment: microbe, parasite or virus in culture; type: cell-based; settings: Burkholderia thailandensis, ATCC700388, read-out: Minimum inhibitory concentration (MIC), B. thailandensis ATCC 700388
[8] = test system: A. baumannii ATCC 19606; experiment: microbe, parasite or virus in culture; type: cell-based; settings: Acinetobacter baumannii, ATCC19606, read-out: Minimum inhibitory concentration (MIC), A. baumannii ATCC 19606
[9] = test system: A. baumannii CDC-0036; experiment: microbe, parasite or virus in culture; type: cell-based; settings: Acinetobacter baumannii, CDC0036, read-out: Minimum inhibitory concentration (MIC), A. baumannii CDC-0036
[10] = test system: B. humptydooensis ATCC BAA-2767; experiment: microbe, parasite or virus in culture; type: cell-based; settings: Burkholderia humptydooensis, ATCCBAA2767, read-out: Minimum inhibitory concentration (MIC), B. humptydooensis ATCC BAA-2767
[11] = test system: B. pseudomallei Bp82; experiment: microbe, parasite or virus in culture; type: cell-based; settings: Burkholderia pseudomallei, BP82, read-out: Minimum inhibitory concentration, B. pseudomallei Bp82
[12] = test system: A. baumannii 1258916; experiment: microbe, parasite or virus in culture; type: cell-based, Acinetobacter baumannii; settings: Acinetobacter baumannii, 1258916, read-out: Minimum inhibitory concentration (MIC), A. baumannii 1258916
[13] = test system: P. aeruginosa ATCC 35151; experiment: microbe, parasite or virus in culture; type: cell-based; settings: Pseudomonas aeruginosa, ATCC35151, read-out: Minimum inhibitory concentration, P. aeruginosa ATCC 35151
[14] = test system: P. aeruginosa CDC-0090; experiment: microbe, parasite or virus in culture; type: cell-based; settings: Pseudomonas aeruginosa, CDC0090, read-out: Minimum inhibitory concentration, P. aeruginosa CDC-0090
[15] = test system: P. aeruginosa ATCC 27853; experiment: microbe, parasite or virus in culture; type: cell-based; settings: Pseudomonas aeruginosa, ATCC27853, read-out: Minimum inhibitory concentration, P. aeruginosa ATCC 27853
[16] = test system: P. aeruginosa CDC-0095; experiment: microbe, parasite or virus in culture; type: cell-based; settings: Pseudomonas aeruginosa, CDC0095, read-out: Minimum inhibitory concentration, P. aeruginosa CDC-0095
[17] = test system: P. aeruginosa CDC-0110; experiment: microbe, parasite or virus in culture; type: cell-based; settings: Pseudomonas aeruginosa, CDC0110, read-out: Minimum inhibitory concentration, P. aeruginosa CDC-0110
[18] = test system: P. aeruginosa CDC-0054; experiment: microbe, parasite or virus in culture; type: cell-based; settings: Pseudomonas aeruginosa, CDC0054, read-out: Minimum inhibitory concentration, P. aeruginosa CDC-0054
[19] = test system: P. aeruginosa (ΔmexAB-oprM); experiment: Broth microdilution MIC in iron-depleted CAMHB (IDM); type: cell-based; settings: Pseudomonas aeruginosa, read-out: Minimum inhibitory concentration, P. aeruginosa ΔmexAB-oprM
[20] = competition binding assay using Bocillin-FL via gel filtration, read-out: A. baumannii PBP1a Potency

A. baumannii PBP2, sequence (D0C8Z9 whole entry): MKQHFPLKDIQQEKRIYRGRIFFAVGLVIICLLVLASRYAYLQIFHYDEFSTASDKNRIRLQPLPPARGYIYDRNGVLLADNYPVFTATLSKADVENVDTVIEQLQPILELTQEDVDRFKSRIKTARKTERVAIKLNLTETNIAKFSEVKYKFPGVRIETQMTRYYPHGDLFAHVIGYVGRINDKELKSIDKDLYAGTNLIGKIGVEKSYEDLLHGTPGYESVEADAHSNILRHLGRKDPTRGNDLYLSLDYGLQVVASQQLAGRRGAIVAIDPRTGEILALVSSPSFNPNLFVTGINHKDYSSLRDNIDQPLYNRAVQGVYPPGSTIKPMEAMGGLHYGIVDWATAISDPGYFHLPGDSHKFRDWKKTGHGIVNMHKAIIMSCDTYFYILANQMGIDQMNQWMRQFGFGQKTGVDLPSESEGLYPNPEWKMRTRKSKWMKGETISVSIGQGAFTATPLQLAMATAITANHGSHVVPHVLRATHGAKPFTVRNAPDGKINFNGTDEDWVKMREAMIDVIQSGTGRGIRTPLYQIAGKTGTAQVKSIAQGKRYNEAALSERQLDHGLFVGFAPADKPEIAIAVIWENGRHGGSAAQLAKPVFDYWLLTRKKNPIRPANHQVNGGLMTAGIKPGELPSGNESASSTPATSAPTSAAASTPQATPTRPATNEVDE
T2 sequence (G3XD46 whole entry): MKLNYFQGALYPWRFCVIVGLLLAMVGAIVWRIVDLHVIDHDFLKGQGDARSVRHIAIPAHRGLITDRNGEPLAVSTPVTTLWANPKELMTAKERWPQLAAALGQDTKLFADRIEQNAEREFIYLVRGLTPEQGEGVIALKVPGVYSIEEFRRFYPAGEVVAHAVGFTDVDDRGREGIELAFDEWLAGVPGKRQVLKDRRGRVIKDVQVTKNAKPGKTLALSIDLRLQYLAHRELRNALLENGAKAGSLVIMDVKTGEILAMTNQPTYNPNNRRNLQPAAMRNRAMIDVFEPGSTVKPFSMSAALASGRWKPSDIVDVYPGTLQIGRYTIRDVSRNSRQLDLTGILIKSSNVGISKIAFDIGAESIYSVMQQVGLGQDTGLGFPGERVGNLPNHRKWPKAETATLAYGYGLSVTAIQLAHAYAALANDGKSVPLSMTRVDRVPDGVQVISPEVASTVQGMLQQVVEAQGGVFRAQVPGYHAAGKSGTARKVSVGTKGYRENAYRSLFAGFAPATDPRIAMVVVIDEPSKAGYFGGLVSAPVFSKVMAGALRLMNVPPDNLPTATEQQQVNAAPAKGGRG

Structure (SMILES)	pEC50 [1, 20]	pEC50 [4]	MIC [7] [µg/mL]	MIC [10] [µg/mL]	MIC [13] [µg/mL]	MIC [14] [µg/mL]	MIC [15] [µg/mL]	MIC [16] [µg/mL]	MIC [17] [µg/mL]	MIC [18] [µg/mL]	MIC [19] [µg/mL]	further results
O=C(O)c1c(F)ccc2c1OB(O)[C@@H](NC(=O)[C@H](NC(=O)N1CCN(C3CCN(C(=O)Nc4cc(O)c(O)c(Cl)c4)CC3)C1=O)c1ccc(P(=O)(O)O)cc1)C2 (single isomer, unassigned) [Example 501]	> 5.00	> 5.00	< 1	< 1								pIC50 [2]: > 5.00; MIC [3]: < 1 µg/mL; MIC [5]: 2 to 4 µg/mL (≈ 2.44 to 4.88 µM); MIC [6]: < 1 µg/mL; MIC [8]: < 1 µg/mL; MIC [9]: 2 to 4 µg/mL (≈ 2.44 to 4.88 µM); MIC [11]: 2 to 4 µg/mL (≈ 2.44 to 4.88 µM); MIC [12]: 2 to 4 µg/mL (≈ 2.44 to 4.88 µM)
NCc1ccc(C(=O)N2CCC(N3CCN(C(=O)NC(C(=O)N[C@H]4Cc5ccc(F)c(C(=O)O)c5OB4O)c4cc(F)c(O)c(O)c4Cl)C3=O)CC2)cc1 (single isomer, unassigned) [Example 604]	4.30 to 5.00	4.30 to 5.00	< 1	< 1	< 1	< 1	< 1	2 to 4 (≈ 2.59 to 5.19 µM)	< 1	< 1	< 1	
NCc1cc(O)cc(C(=O)N2CCC(N3CCN(C(=O)N[C@@H](C(=O)N[C@H]4Cc5ccc(F)c(C(=O)O)c5OB4O)c4cc(F)c(O)c(O)c4Cl)C3=O)CC2)c1 (single isomer, unassigned) [Example 615]	4.30 to 5.00	4.30 to 5.00	< 1	< 1	< 1	< 1	< 1	< 1	< 1	< 1	< 1	
NCc1ccc(C(=O)N2CCC(N3CCN(C(=O)NC(C(=O)N[C@H]4Cc5ccc(F)c(C(=O)O)c5OB4O)c4cc(F)c(O)c(O)c4Cl)C3=O)CC2)cc1O (single isomer, unassigned) [Example 616]	4.30 to 5.00	4.30 to 5.00	2 to 4 (≈ 2.54 to 5.08 µM)	< 1	< 1	< 1	< 1	< 1	< 1	< 1	< 1	
O=C(O)c1c(F)ccc2c1OB(O)[C@@H](NC(=O)[C@@H](NC(=O)N1CCN(C3CCN(S(=O)(=O)c4ccc5[nH]nnc5c4)CC3)C1=O)c1cc(F)c(O)c(O)c1Cl)C2 (single isomer, unassigned) [Example 620]	> 5.00	> 5.00	> 128	> 128	< 1	2 to 4 (≈ 2.44 to 4.88 µM)	2 to 4 (≈ 2.44 to 4.88 µM)	> 128	> 128	2 to 4 (≈ 2.44 to 4.88 µM)	< 1	
O=C(O)c1c(F)ccc2c1OB(O)[C@@H](NC(=O)[C@H](NC(=O)N1CCN(C3CCN(S(=O)(=O)c4ccc5[nH]nnc5c4)CC3)C1=O)c1cc(F)c(O)c(O)c1Cl)C2 (single isomer, unassigned) [Example 621]	> 5.00	> 5.00	2 to 4 (≈ 2.44 to 4.88 µM)	< 1	< 1	< 1	< 1	< 1	< 1	< 1	< 1	
O=C(O)c1c(F)ccc2c1OB(O)[C@@H](NC(=O)C(NC(=O)N1CCN(C3CCN(Cc4cccc(O)c4)CC3)C1=O)c1cc(F)c(O)c(O)c1Cl)C2 (stereo partly drawn) [Example 605, (3R)-3-(2-(2-chloro-5-fluoro-3,4-dihydroxyphenyl)-2-(3-(1-(3-hydroxybenzyl)piperidin-4-yl)-2-oxoimidazolidine-1-carboxamido)acetamido)-7-fluoro-2-hydroxy-3,4-dihydro-2H-benzo[e][1,2]oxaborinine-8-carboxylic acid]		4.30 to 5.00	< 1	< 1								pEC50 [1]: > 5.00; MIC [11]: < 1 µg/mL
O=C(O)c1c(F)ccc2c1OB(O)[C@@H](NC(=O)[C@H](NC(=O)N1CCN(C3CCN(S(=O)(=O)c4ccc5[nH]nnc5c4)CC3)C1=O)c1cc(F)c(O)c(O)c1F)C2 [Example 622, (R)-3-((R)-2-(3-(1-((1H-benzo[d][1,2,3]triazol-5-yl)sulfonyl)piperidin-4-yl)-2-oxoimidazolidine-1-carboxamido)-2-(2,5-difluoro-3,4-dihydroxyphenyl)acetamido)-7-fluoro-2-hydroxy-3,4-dihydro-2H-benzo[e][1,2]oxaborinine-8-carboxylic acid]			2 to 4 (≈ 2.49 to 4.98 µM)		< 1	< 1	2 to 4 (≈ 2.49 to 4.98 µM)	2 to 4 (≈ 2.49 to 4.98 µM)	< 1	< 1		MIC ([19]; iron-depleted CAMHB (IDM), […]): < 1 µg/mL
O=C(O)c1c(F)ccc2c1OB(O)[C@@H](NC(=O)[C@H](NC(=O)N1CCN(C3CCN(C(=O)c4cc(O)cc(O)c4)CC3)C1=O)c1cc(F)c(O)c(O)c1F)C2 [Example 623, (R)-3-((R)-2-(2,5-difluoro-3,4-dihydroxyphenyl)-2-(3-(1-(3,5-dihydroxybenzoyl)piperidin-4-yl)-2-oxoimidazolidine-1-carboxamido)acetamido)-7-fluoro-2-hydroxy-3,4-dihydro-2H-benzo[e][1,2]oxaborinine-8-carboxylic acid]			< 1		< 1	< 1	< 1	< 1	< 1	< 1		MIC ([19]; iron-depleted CAMHB (IDM), […]): < 1 µg/mL
